This passage reports viability, T/C and IC50 results from PubChem BioAssay AID1963851 (Molecular Pharmacology Branch, DTP, NCI, 2024).

The subject of this test is 188146-221-R-J1-PDC complex spheroid viability. The test is described as follows: Anticancer human tumor 188146-221-R-J1-PDC patient-derived colon adenocarcinoma cell line growth inhibition [POLQ]. As to conditions: for viability, T/C: stronger effect = lower value. How it is done:
Multicellular complex tumor spheroid response to Polymerase (POL) inhibitors (novobiocin, ART-558, RP6685) in combination with a variety of drugs and investigational agents in selected tumor cell lines
The POL inhibitors (novobiocin, ART-558, and RP6685) were evaluated both individually and in combination with standard of care and investigational anticancer small molecules within a complex spheroid model of solid tumors. . Complex spheroids include a stromal component modeled by human endothelial cells (HUVEC) and fibroblasts modeled by human mesenchymal stem cells (MSCs). The concentration ranges selected for each drug and investigational agent were based upon clinically achievable concentrations if the clinical Cmax of the agent was known.
Compounds. The drugs and investigational agents: novobiocin (NSC847541), ART-558 (NSC835418), RP-6685 (NSC848927), peposertib (NSC802822), ceralasertib (NSC780249), elimusertib (NSC800525), camonsertib (NSC841442), AZD-1390 (NSC803789), olaparib (NSC753686), talazoparib (NSC767125), rucaparib (NSC756644), sotorasib (NSC818433), MRTX-1133 (NSC836407), SN-38 (NSC673596), topotecan (NSC609699), epotoside (NSC141540), doxorubicin (NSC123127), gemcitabine (NSC613327), 5-fluorouracil (NSC19893), paclitaxel (NSC125973), vemurafenib (NSC761431), MSA-2 (NSC828583), SN-011 (NSC837082), adavosertib (NSC754352), prexasertib (NSC758257), carboplatin (NSC241240) and oxaliplatin (NSC266046), were obtained from the National Cancer Institute (NCI) Developmental Therapeutics Program Chemical Repository (21). The FDA-approved anticancer drug set is available from the Developmental Therapeutics Program at https://dtp.cancer.gov/organization/dscb/obtaining/. […] The stock solutions were prepared in dimethyl sulfoxide (DMSO, Sigma-Aldrich, St. Louis, MO, cat. D2650), except for the platinum compounds which were prepared in saline (Quality Biological, Gaithersburg, MD, cat. 114-055-101), at 800-fold the tested concentration and stored at -70 degrees C prior to their use. All drugs and investigational agents were tested over a range starting from a high concentration at or near the clinical Cmax and decreasing in half-log increments. If the clinical Cmax for an agent had not been determined, the highest concentration tested was 10 microM, except for SN-38, which was tested at a high concentration of 1 microM.
Cell Culture. All cells were maintained in an incubator at 37 degrees C and 5% CO2 with 95% humidity. The PDC lines were cultured according to standard operating procedures established by the NCI PDMR (https://pdmr.cancer.gov). Table 3 of the manuscript, lists the cell lines along with the number of the three cell types plated to form the mct-spheroids and media for tumor cell growth. After thawing, all PDC lines, except 997537-175-T-J1-PDC and 415267-285-R-J2-PDC, were cultured in Matrigel-coated flasks prepared with a working solution of 1X Ham's F-12 nutrient mix, without supplementation (Thermo Fisher Scientific, cat. 11765054), 100 U/mL penicillin-streptomycin (Thermo Fisher Scientific, cat. 15140122), and 2.5% Matrigel (Corning Inc., Corning, NY, cat. 354248) for the first three passages. The two PDC lines 997537-175-T-J1-PDC and 415267-285-R-J2-PDC were cultured on uncoated flasks. The 857933-349-R-J2-PDC line was cultured in 6C/Colon 1B media containing advanced DMEM/F-12 (Thermo Fisher Scientific, cat. 12634028), 10 mM HEPES (Thermo Fisher Scientific, cat. 15630080), 1X GlutaMAX supplement (Thermo Fisher Scientific, cat. 35050061), 0.1 mg/mL primocin (InvivoGen, San Diego, CA, cat. ant-pm-2), 10% defined fetal bovine serum, heat inactivated (HyClone Laboratories Inc., Logan, UT, cat. SH30070.03HI), 50% L-WRN conditioned media (ATCC, cat. CRL-3276), 1.25 mM N-Acetyl-L-cysteine (Sigma-Aldrich, cat. A9165), 10 mM nicotinamide (Sigma-Aldrich, cat. N0636), 1X B-27 supplement (Thermo Fisher Scientific, cat. 17504044), 1X N-2 supplement (Thermo Fisher Scientific, cat. […]

Molecules are shown by their SMILES. pIC50: −log10 of the molar value. “And” between values parts separate entries of the source, which are not always exact repeats. Identical values can stand only once.

Broadly, the viability, T/C is the result in the treated group divided by that in the control group, in per cent. The pIC50 is the IC50 on a negative log10 scale, so that one unit is a factor of ten.
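Note: spheroids exposed to compounds for seven days.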

Consider `C#Cc1c(F)ccc2cc(O)cc(-c3ncc4c(N5CC6CCC(C5)N6)nc(OCC56CCCN5CC(F)C6)nc4c3F)c12` (stereo unspecified), for which the viability, T/C reads like this: (compound 0.0316 µM) 100% and 103% and 99.2%; (compound 0.1 µM) 97.1% and 105% and 99.9%; (compound 0.316 µM) 90.5% and 81.7% and 89.8%; (compound 1 µM) 96.4% and 100% (2×); (compound 3.16 µM) 98.2% and 99.9% and 104%; (compound 10 µM) 89.1% and 102% and 85.3%. The pIC50 (curve of compound) is below 5.00.

For `CC1COCCN1c1cc(C2(O)CC3CCC(C2)O3)c2cnn(-c3ccn[nH]3)c2n1` (stereo unspecified), the viability, T/C by setting is: (compound 0.0316 µM) 92% and 93.4% and 87%; (compound 0.1 µM) 84.8% and 75% and 73.3%; (compound 0.316 µM) 44.9% and 50.6% and 53.1%; (compound 1 µM) 28.2% and 28.1% and 26%; (compound 3.16 µM) 21.8% and 18.4% and 19.3%; (compound 10 µM) 6.59% and 6.67% and 8.27%. Moreover, the pIC50 (curve of compound) is 6.49 and 6.48 and 6.47.

Turning to `CCc1cc2c(N3CCc4c(cc(Cn5ccnc5)cc4-c4cn(C)nc4C(F)(F)F)C3=O)cc(C)nc2c(OC)n1`, the viability, T/C is 114% and 97.3% and 106% (compound 0.0316 µM); 114% and 95.4% and 108% (compound 0.1 µM); 95.9% and 83.1% and 98.9% (compound 0.316 µM); 85.5% and 80.4% and 92.5% (compound 1 µM); 71% and 77.1% and 66.7% (compound 3.16 µM); 41.5% and 47.2% and 47.6% (compound 10 µM). Moreover, under “curve of compound”, the pIC50 is 5.14 and 5.02 and 5.07.

Regarding `CCc1cc2c(N3CCc4c(cc(Cn5ccnc5)cc4-c4cn(C)nc4C(F)(F)F)C3=O)ccnc2c(OC)n1`, the viability, T/C by setting is: (compound 0.0316 µM) 103% and 102% and 97.4%; (compound 0.1 µM) 100% and 84.5% and 101%; (compound 0.316 µM) 100% and 99.4% and 92.2%; (compound 1 µM) 92.7% and 93.4% and 98.2%; (compound 3.16 µM) 69.5% and 74% and 71.6%; (compound 10 µM) 48.1% and 54.2% and 57.5%. Also, where the note is “curve of compound”, the pIC50 is 5.05 and < 5.00.

For `COc1cc2cc(C(=O)CCC(=O)O)sc2cc1OC`, the viability, T/C is 100% and 119% and 108% (compound 0.0316 µM); 84.6% and 105% (2×) (compound 0.1 µM); 108% and 88.4% and 95% (compound 0.316 µM); 93% and 103% and 104% (compound 1 µM); 100% and 109% and 108% (compound 3.16 µM); 111% and 110% and 95.3% (compound 10 µM). For the same compound, the pIC50 (curve of compound) is below 5.00.

On to `Cc1cccc(N(C)C(=O)C2C(O)CCN2c2nc(C)cc(C(F)(F)F)c2C#N)c1` (stereo unspecified), for which the viability, T/C was 102% [middle of 13 runs] (compound 0.1 µM); 100% [middle of 13 runs] (compound 0.316 µM); 105% [middle of 13 runs] (compound 1 µM); 101% [middle of 13 runs] (compound 3.16 µM); 97.8% [middle of 13 runs] (compound 10 µM). The pIC50 by setting is: (compound alone, run of 10/31/2023) below 5.00; (compound alone, run of 11/06/2023) below 5.00.

As to `O=C(Nc1ccc(O)c(NS(=O)(=O)c2ccc(F)cc2)c1)c1ccc(-c2ccccc2)cc1`, the viability, T/C runs as follows: (compound 0.0316 µM) 93.2% and 100% and 110%; (compound 0.1 µM) 98.5% and 107% and 104%; (compound 0.316 µM) 89.5% and 95.1% and 93.5%; (compound 1 µM) 93.2% and 103% and 118%; (compound 3.16 µM) 99.4% and 81.3% and 100%; (compound 10 µM) 59.1% and 73.5% and 78.4%. For the same compound, where the note is “curve of compound”, the pIC50 is below 5.00.

Regarding `CCCS(=O)(=O)Nc1ccc(F)c(C(=O)c2c[nH]c3ncc(-c4ccc(Cl)cc4)cc23)c1F` + COC1C(OC(N)=O)C(O)C(Oc2ccc3c(O)c(NC(=O)c4ccc(O)c(CC=C(C)C)c4)c(=O)oc3c2C)OC1(C)C, the pIC50 is, setting by setting: (curve of first compound, second compound 0.0316 µM) 5.26; (curve of first compound, second compound 0.1 µM) 5.23; (curve of first compound, second compound 0.316 µM) 5.31; (curve of first compound, second compound 1 µM) 5.25; (curve of first compound, second compound 3.16 µM) 5.11; (curve of first compound, second compound 10 µM) 5.28. The viability, T/C is 106% (second compound 0.0316 µM, first compound 0.0316 µM); 92% (second compound 0.0316 µM, first compound 0.1 µM); 77.3% (second compound 0.0316 µM, first compound 0.316 µM); 76.3% (second compound 0.0316 µM, first compound 1 µM); 79.8% (second compound 0.0316 µM, first compound 3.16 µM); 27.5% (second compound 0.0316 µM, first compound 10 µM). In addition, the viability, T/C is, setting by setting: (second compound 0.1 µM, first compound 0.0316 µM) 110%; (second compound 0.1 µM, first compound 0.1 µM) 102%; (second compound 0.1 µM, first compound 0.316 µM) 89%; (second compound 0.1 µM, first compound 1 µM) 89.8%; (second compound 0.1 µM, first compound 3.16 µM) 76.9%; (second compound 0.1 µM, first compound 10 µM) 29.7%. Further, the viability, T/C was 100% (second compound 0.316 µM, first compound 0.0316 µM); 89.5% (second compound 0.316 µM, first compound 0.1 µM); 94.5% (second compound 0.316 µM, first compound 0.316 µM); 79.7% (second compound 0.316 µM, first compound 1 µM); 65.3% (second compound 0.316 µM, first compound 3.16 µM); 26.8% (second compound 0.316 µM, first compound 10 µM). Besides, the viability, T/C reads like this: (second compound 1 µM, first compound 0.0316 µM) 100%; (second compound 1 µM, first compound 0.1 µM) 96.2%; (second compound 1 µM, first compound 0.316 µM) 85.4%; (second compound 1 µM, first compound 1 µM) 84.7%; (second compound 1 µM, first compound 3.16 µM) 75.1%; (second compound 1 µM, first compound 10 µM) 27.4%. Further, the viability, T/C was 102% (second compound 3.16 µM, first compound 0.0316 µM); 103% (second compound 3.16 µM, first compound 0.1 µM); 92.2% (second compound 3.16 µM, first compound 0.316 µM); 72.3% (second compound 3.16 µM, first compound 1 µM); 80.9% (second compound 3.16 µM, first compound 3.16 µM); 41.2% (second compound 3.16 µM, first compound 10 µM). The viability, T/C (second compound 10 µM, first compound 0.0316 µM) was 102%; the viability, T/C (second compound 10 µM, first compound 0.1 µM) was 90.2%; the viability, T/C (second compound 10 µM, first compound 0.316 µM) was 96.3%; the viability, T/C (second compound 10 µM, first compound 1 µM) was 78.2%; the viability, T/C (second compound 10 µM, first compound 3.16 µM) is 72.7%; the viability, T/C (second compound 10 µM, first compound 10 µM) was 26%.
